Here are results for 9 compounds from patent US8912195B2, “Alkyl amides as HIV attachment inhibitors” (priority 2010, dated 2014).

One may read the pEC50 as the negative decadic logarithm of the EC50, by convention in mol/L.

Each structure is given as a SMILES string. pEC50: −log10 of the molar value. Like-named read-outs stand apart in the source and are kept apart here.

The experiment relates to single-round infectious reporter virus with HIV-1 LAI envelope. The experiment is described as follows: Single-round infectious HIV-1 LAI luciferase reporter virus infection of MT2 cells. The format is cell-based. The conditions noted are these: Human immunodeficiency virus 1, MT2, 72 h. The text has this:
• Virus production—Human embryonic Kidney cell line, 293T (HEK 293T), was propagated in Dulbecco's Modified Eagle Medium (Invitrogen, Carlsbad, Calif.) containing 10% fetal Bovine serum (FBS, Sigma, St. Louis, Mo.). The human T-cell leukemia cell MT2 (AIDS Research and Reference Reagent Program, Cat. 237) was propagated in RPMI 1640 (Invitrogen, Carlsbad, Calif.) containing 10% fetal bovine serum (FBS, Hyclone, Logan, Utah) • Virus infection—Single-round infectious reporter virus was produced by co-transfecting HEK 293T cells with plasmide expressing the HIV-1 LAI envelope along with a plasmid containing an HIV-1 LAI proviral cDNA with the envelope gene replaced by a firefly luciferase reporter gene (Chen et al, Ref 41). Transfections were performed using lipofectAMINE PLUS reagent as described by the manufacturer (Invitrogen, Carlsbad, Calif.).
• 1. MT2 cells were plated in black, 384 well plates at a cell density of 5×10^3 cells per well in 25 μl RPMI 1640 containing 10% FBS. • 2. Compound (diluted in dimethylsulfoxide and growth medium) was added to cells at 12.5 μl/well, so that the final assay concentration would be ≦50 nM. • 3. 12.5 μl of single-round infectious reporter virus in Dulbecco's Modified Eagle Medium was added to the plated cells and compound at an approximate multiplicity of infection (MOI) of 0.01, resulting in a final volume of 50 μl per well. • 4. Virus-infected cells were incubated at 37 degrees Celsius, in a CO2 incubator, and harvested 72 h after infection. • 5. Viral infection was monitored by measuring luciferase expression in the infected cells using a luciferase reporter gene assay kit (Steady-Glo, Promega, Madison, Wis.) as described by the manufacturer. Luciferase activity was then quantified by measuring luminescence using an EnVision Multilabel Plate Readers (PerkinElmer, Waltham, Mass.). • 6. The percent inhibition for each compound was calculated by quantifying the level of luciferase expression in cells infected in the presence of each compound as a percentage of that observed for cells infected in the absence of compound and subtracting such a determined value from 100. • 7. An EC50 provides a method for comparing the antiviral potency of the compounds of this disclosure. The effective concentration for fifty percent inhibition (EC50) was calculated with the Microsoft Excel Xlfit curve fitting software. For each compound, curves were generated from percent inhibition calculated at 10 different concentrations by using a four paramenter logistic model (model 205). Table 1 is the key for the data in Table 2.
(In general: Reporter assays use an easily measured gene product as a stand-in for the process of interest.)

Setting [1] is: read-out: EC50 Group from Table 1.

Take `COc1cnc(-n2ccnn2)c2[nH]cc(C(=O)C(=O)N3CCN(C(=O)[C@]45C[C@H]6C[C@H](C[C@H](C6)C4)C5)CC3)c12` [Compound 1003]: the pEC50 under setting [1] is more than 6.30.

`O=C(C(=O)N1CCN(C(=O)C2CCOC2)CC1)c1c[nH]c2c(-n3ccnn3)ncc(F)c12` (centres unmarked) [Compound 2015]: the pEC50 under setting [1] was more than 6.30.

As to `CN1CCCC(C(=O)N2CCN(C(=O)C(=O)c3c[nH]c4c(-n5ccnn5)ncc(F)c34)CC2)C1` (centres unmarked) [Compound 2021], the pEC50 is 7.11. Further, the pEC50 under setting [1] is more than 6.30.

Compound `O=C(C(=O)N1CCN(C(=O)C2CCCCCC2)CC1)c1c[nH]c2c(-n3ccnn3)ncc(F)c12` [Compound 2005] gave a pEC50 of 9.44. Moreover, the pEC50 under setting [1] is more than 6.30.

As for `COc1cnc(-n2cnc(C)n2)c2[nH]cc(C(=O)C(=O)N3CCN(C(=O)CN(C)C)CC3)c12` [Compound 2049], under setting [1], the pEC50 is less than 6.30.

On to `CN1CCC(C(=O)N2CCN(C(=O)C(=O)c3c[nH]c4c(-n5ccnn5)ncc(F)c34)CC2)CC1` [Compound 2020], for which, under setting [1], the pEC50 was less than 6.30.

With `COc1cnc(-n2ccnn2)c2[nH]cc(C(=O)C(=O)N3CCN(C(=O)C4CCCCC4)CC3)c12` [Compound 1002, 1-(4-(cyclohexanecarbonyl)piperazin-1-yl)-2-(4-methoxy-7-(1H-1,2,3-triazol-1-yl)-1H-pyrrolo[2,3-c]pyridin-3-yl)ethane-1,2-dione], under setting [1], the pEC50 is more than 6.30.

With `CCCCCC(=O)N1CCN(C(=O)C(=O)c2c[nH]c3c(-n4ccnn4)ncc(F)c23)CC1` [Compound 2042], the pEC50 under setting [1] was more than 6.30.

As for `COCCOCC(=O)N1CCN(C(=O)C(=O)c2c[nH]c3c(-n4cnc(C)n4)ncc(OC)c23)CC1` [Compound 2051], the pEC50 under setting [1] was less than 6.30.
